Measurements reported in patent US7259172B2, “Inhibitors of β-lactamase” (priority 1999, dated 2007).
Where a name gives a salt, the structure may show the parent alone. Read-outs that look alike come from different tables or passages of the source.

Assays:
[1] = target: P99 β-lactamase (class C) (Enterobacter cloacae, UniProt P05364); assay: biochemical
Protocol: Enzyme activity against the commercially available substrate, nitrocefin, was measured in the presence of various inhibitor concentrations. The P99 β-lactamase enzyme (1 mg/mL) was dissolved in 20 mM MOPS buffer at pH 7.50, and diluted 200-fold in the same buffer containing 0.1% BSA. Nitrocefin was stored as a 100 μM stock solution in 20 mM MOPS at pH 7.5. Stock solutions of test compounds were prepared in 10 mM MOPS at pH 7.5 (approximately 1 mg/mL)
The reaction at 25° C. was followed spectrophotometrically at 482 nm. IC50 values were determined from the dose-response plots of the initial rates vs. inhibitor concentration

[2] = Table 1
[3] = tested on: Enterobacter cloacae [ATCC #23355]; format: cell-based; conditions: ratio antibiotic MIC without/with inhibitor
Description: An increasing number of organisms produce enzymes that inhibit the actions of β-lactam antibiotics, so-called β-lactamases. […] The Minimum Inhibitory Concentration (MIC) test determines the lowest concentration of an antibiotic at which no visible bacterial growth occurs. This test permits comparisons to be made between bacterial growth in the presence of antibiotic alone (control) and bacterial growth in the presence of both an antibiotic and a novel (test) compound.
(§1) Frozen bacterial stocks were thawed to room temperature, and a few drops were placed on an appropriate plate; chocolate agar was used for H. influenzae, blood agar was used for all others. The plates were incubated overnight at 37° C. in air, except for H. influenzae, which was incubated in a CO2 incubator. The cultures were subcultured the following day, and the subcultures were again incubated overnight
A sterile loop was touched to 3 colonies and used to inoculate 1 mL of Mueller-Hinton Broth (MHB). […] 5 μL of the resultant inoculum solution contained ˜4×10^4 CFU/mL. Confirmation of the inoculum was performed by preparing a serial dilution to give 100 μL of a 5000-fold dilution, all of which was then plated onto an appropriate plate.
(§2) Each plate included 2 wells with no bacterial inoculum (negative control) and 2 wells with no test compound and no antibiotic (positive control). The plate was covered and incubated with gentle shaking for 16-20 hours at 37° C. in air (CO2 for H. influenzae). Absorbance was read at 540 nm (Multiskan Titertek mcc/340). Bacterial growth was scored as follows:
(§3) In some cases, the determination of MIC in the presence of test compound was performed at more than one concentration of the test compound.
The impact of the novel β-lactamase inhibitors is expressed as the ratio of the MIC determined in the absence of β-lactamase inhibitor to the MIC determined in the presence of the specified concentration of the β-lactamase inhibitor test compound.

[4] = tested on: Enterobacter cloacae (derepressed); assay: Synergy against highly resistant β-lactamase positive strains; format: cell-based; conditions: derepressed strain
Protocol: as §1
(§4) A sterile loop was touched to 3 colonies and used to inoculate 1 mL of Mueller-Hinton Broth (MHB). The bacterial solution was diluted 18.8-fold (20 μL of bacterial solution in […] of broth). 5 μL of the resultant inoculum solution contained ˜4×10^4 CFU/mL. Confirmation of the inoculum was performed by preparing a serial dilution to give 100 μL of a 5000-fold dilution, all of which was then plated onto an appropriate plate. After incubation overnight at 37° C., the plate had 75-150 colonies.
as §2, with “In each well of a 96-well microtiter plate was combined 5 μL of bacterial inoculum, 90 μL of antibiotic dilutions, and 5 μL of test compound (or media for determination of the MIC of the antibiotic in the absence of test compound). Each” for “Each”
as §3
(§5) The impact of the novel β-lactamase inhibitors is expressed as the ratio of the MIC determined in the absence of β-lactamase inhibitor to the MIC determined in the presence of the specified concentration of the β-lactamase inhibitor test compound. […]
(§6) Following procedures identical to those described in Example 72, β-lactamase inhibitors were tested for their ability to enhance antibiotic efficacy against β-lactamase positive bacterial strains that are very highly resistant to β-lactam antibiotics.
(§7) • Enterobacter cloacae (derepressed) • Pseudomonas aeroginosa [ATCC#12470-resistant] • Stenotrophomonas maltophilia [ATCC#12968-resistant] • Pseudomonas aeroginosa [ATCC#98043010-intermediate resistance] • Stenotrophomonas maltopilia [ATCC#98043029-intermediate resistance]

[5] = tested on: Pseudomonas aeroginosa [ATCC#12470-resistant]; assay: as above; format: cell-based
Protocol: as §1, §4
as §2, with “In each well of a 96-well microtiter plate was combined 5 μL of bacterial inoculum, 90 μL of antibiotic dilutions, and 5 μL of test compound (or media for determination of the MIC of the antibiotic in the absence of test compound). Each” for “Each”
as §3, §5, §6, §7

[6] = tested on: Pseudomonas aeroginosa [ATCC#98043010-intermediate resistance]; assay: as above; format: cell-based
Protocol: as §1, §4
as §2, with “In each well of a 96-well microtiter plate was combined 5 μL of bacterial inoculum, 90 μL of antibiotic dilutions, and 5 μL of test compound (or media for determination of the MIC of the antibiotic in the absence of test compound). Each” for “Each”
as §3, §5, §6, §7

[7] = tested on: Stenotrophomonas maltophilia [ATCC#12968-resistant]; assay: as above; format: cell-based
Protocol: as §1, §4
as §2, with “In each well of a 96-well microtiter plate was combined 5 μL of bacterial inoculum, 90 μL of antibiotic dilutions, and 5 μL of test compound (or media for determination of the MIC of the antibiotic in the absence of test compound). Each” for “Each”
as §3, §5, §6, §7

[8] = tested on: Stenotrophomonas maltophilia [ATCC#98043029-intermediate resistance]; assay: as above; format: cell-based
Protocol: as §1, §4
as §2, with “In each well of a 96-well microtiter plate was combined 5 μL of bacterial inoculum, 90 μL of antibiotic dilutions, and 5 μL of test compound (or media for determination of the MIC of the antibiotic in the absence of test compound). Each” for “Each”
as §3, §5, §6, §7

[9] = tested on: Haemophilus influenzae [ATCC #43163]; assay: Antibiotic MIC in presence and absence of β-lactamase inhibitor (synergy); format: cell-based; conditions: ratio antibiotic MIC without/with inhibitor; inhibitor 10 μg/mL
Description: (§8) An increasing number of organisms produce enzymes that inhibit the actions of β-lactam antibiotics, so-called β-lactamases. The “strength” of β-lactam antibiotics can be improved by pairing them with compounds that inhibit bacterial enzyme β-lactamases. The Minimum Inhibitory Concentration (MIC) test determines the lowest concentration of an antibiotic at which no visible bacterial growth occurs. This test permits comparisons to be made between bacterial growth in the presence of antibiotic alone (control) and bacterial growth in the presence of both an antibiotic and a novel (test) compound.
(§9) • β-lactamase positive strains • β-lactam antibiotics • β-lactamase inhibitor compounds • appropriate bacterial growth medium β-Lactamase Positive Strains • Klebsiella oxytoca [ATCC#51983] • Staphylococcus aureus [MGH: MA#50848] • Enterococcus faecalis [ATCC#49757] • Enterobacter cloacae [ATCC#23355] • Haemophilus influenzae [ATCC#43163] β-Lactam antibiotics
as §1, §4
as §2, with “In each well of a 96-well microtiter plate was combined 5 μL of bacterial inoculum, 90 μL of antibiotic dilutions, and 5 μL of test compound (or media for determination of the MIC of the antibiotic in the absence of test compound). Each” for “Each”
as §3, §5

[10] = tested on: Staphylococcus aureus [MGH:MA #50848]; assay: as above; format: cell-based; conditions: ratio antibiotic MIC without/with inhibitor; inhibitor 10 μg/mL
Description: as §8, §9, §1, §4
as §2, with “In each well of a 96-well microtiter plate was combined 5 μL of bacterial inoculum, 90 μL of antibiotic dilutions, and 5 μL of test compound (or media for determination of the MIC of the antibiotic in the absence of test compound). Each” for “Each”
as §3, §5

[11] = Class C β-lactamase [P99], Table 1, read-out: IC50 (μM) “C”

P99 β-lactamase (class C), sequence (P05364 21-381): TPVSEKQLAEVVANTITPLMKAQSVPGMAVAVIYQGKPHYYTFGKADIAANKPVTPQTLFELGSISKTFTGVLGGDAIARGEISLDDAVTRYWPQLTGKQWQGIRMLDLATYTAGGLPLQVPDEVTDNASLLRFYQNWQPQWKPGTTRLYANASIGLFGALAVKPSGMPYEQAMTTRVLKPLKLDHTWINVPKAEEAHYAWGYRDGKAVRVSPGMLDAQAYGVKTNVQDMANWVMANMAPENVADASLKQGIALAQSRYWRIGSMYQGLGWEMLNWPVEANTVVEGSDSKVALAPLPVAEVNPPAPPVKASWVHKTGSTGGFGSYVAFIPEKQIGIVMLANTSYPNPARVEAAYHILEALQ

Molecule | IC50 [1] [µM] | Synergy Class C E. Cl ([3]; inhibitor 10 μg/mL) | Synergy Class A H. In. [9] | also measured
[(2-Benzothiophenesulfonyl-N-phenylethylamino)-methyl]-phosphonic acid mono-(4-nitrophenyl) ester ammonium salt [Compound 143] |  |  |  | IC50 [1, 11]: 133 µM; Log P [2]: 1.17
O=[N+]([O-])c1ccc(OP(=O)(O)CNS(=O)(=O)c2ccc([N+](=O)[O-])cc2)cc1 [compound 12] | 10 |  |  | 
O=[N+]([O-])c1ccc(OP(=O)(O)CNS(=O)(=O)c2cc3c(Cl)ccc(Cl)c3s2)cc1 [Compound 128, (5,8-dichlorobenzothiophene-2-sulfonyl)aminomethylphosphonic acid mono-(4-nitrophenyl) ester ammonium salt] | 0.1 | 16 |  | Synergy Resistant Ent. Cloacae ([4]; inhibitor 1 μg/mL): 1; Synergy Resistant Ent. Cloacae ([4]; inhibitor 10 μg/mL): 5; Synergy Resistant Pseudo. ([5]; inhibitor 1 μg/mL): 1; Synergy Resistant Pseudo. ([5]; inhibitor 10 μg/mL): 1; Synergy Intermed. Pseudo. ([6]; inhibitor 1 μg/mL): 1; Synergy Intermed. Pseudo. ([6]; inhibitor 10 μg/mL): 2; Synergy Resistant Stenotro. ([7]; inhibitor 1 μg/mL): 1; Synergy Resistant Stenotro. ([7]; inhibitor 10 μg/mL): 1; Synergy Intermed. Stenotro. ([8]; inhibitor 1 μg/mL): 1; Synergy Intermed. Stenotro. ([8]; inhibitor 10 μg/mL): 2; logP (physchem): 0.45
N.O=[N+]([O-])c1ccc(OP(=O)(O)C(Cc2ccccc2)NS(=O)(=O)c2cccs2)cc1 (stereo not drawn) [Compound 44, [2-Phenyl-1-(thiophene-2-sulfonylamino)-ethyl]-phosphonic acid mono-(4-nitrophenyl) ester ammonium salt] | 192 | 2/2 | 1 | Synergy Class C E. Cl ([3]; inhibitor 1 μg/mL): 2/2; Synergy Class A St. A. [10]: 1
O=[N+]([O-])c1ccc(OP(=O)(O)CNS(=O)(=O)c2cccs2)cc1 [compound 15] | 18 |  |  | 
CC(C)C(NS(=O)(=O)c1cccs1)P(=O)(O)Oc1cccnc1Cl.N (stereo not drawn) [Compound 54, [2-Methyl-1-(thiophene-2-sulfonylamino)-propyl]-phosphonic acid mono-(2-chloropyridin-3-yl) ester ammonium salt] | 1800 | 2 | 1 | Synergy Class C E. Cl ([3]; inhibitor 1 μg/mL): 1; Synergy Class A St. A. [10]: 1
[(2-Benzothiophenesulfonyl-N-ethylamino)-methyl]-phosphonic acid mono-(4-nitrophenyl) ester ammonium salt [Compound 144] |  |  |  | IC50 [1, 11]: 463 µM; Log P [2]: −0.036
O=P(O)(CNS(=O)(=O)c1ccsc1)Oc1cccnc1 [compound 55] | 3600 |  |  | 
N.O=P(O)(Oc1cccnc1Cl)C(NS(=O)(=O)c1cccs1)c1ccccc1 (stereo not drawn) [Compound 60, [Phenyl-(thiophene-2-sulfonylamino)-methyl]-phosphonic acid mono-(2-chloropyridin-3-yl) ester ammonium salt] | 603 | 2 | 1 | Synergy Class C E. Cl ([3]; inhibitor 1 μg/mL): 1; Synergy Class A St. A. [10]: 1
O=[N+]([O-])c1ccc(OP(=O)(O)CNS(=O)(=O)c2ccccc2)cc1 [compound 7] | 4 |  |  | 
O=P(O)(CNS(=O)(=O)c1cccs1)Oc1cccc(Cl)c1 [compound 48] | 189 |  |  | 
O=[N+]([O-])c1ccc(OP(=O)(O)CNS(=O)(=O)c2cc3ccccc3s2)cc1 [compound 77] | 0.4 |  |  | 
CN(C)c1cccc(OP(=O)(O)CNS(=O)(=O)c2cccs2)c1 [compound 78] | 3000 |  |  | 
O=[N+]([O-])c1ccc(OP(=O)(O)NNS(=O)(=O)c2ccccc2)cc1 [compound 189] |  |  |  | IC50 [1, 11]: 62 µM
N.O=[N+]([O-])c1ccc(OP(=O)(O)C(NS(=O)(=O)c2cccs2)c2ccccc2)cc1 (stereo not drawn) [Compound 53, [Phenyl-(thiophene-2-sulfonylamino)-methyl]-phosphonic acid mono-(4-nitrophenyl) ester ammonium salt] | 363 | 2/2 | 1 | Synergy Class C E. Cl ([3]; inhibitor 1 μg/mL): 2/2; Synergy Class A St. A. [10]: 1
CN(CP(=O)(O)Oc1ccc([N+](=O)[O-])cc1)S(=O)(=O)c1cccs1.N [Compound 47, [(2-Thiophenesulfonyl-N-methylamino)methyl]-phosphonic acid mono-(4-nitrophenyl) ester ammonium salt] | 276 | 2 | 1 | 
O=[N+]([O-])c1ccc(OP(=O)(O)CN(Cc2ccccc2)S(=O)(=O)c2cc3ccccc3s2)cc1 [Compound 145, (2-Benzothiophenesulfonyl-N-benzylamino)-methyl]-phosphonic acid mono-(4-nitrophenyl) ester ammonium salt] | 94 | 4 |  | logP (physchem): 0.86
N.O=P(O)(Oc1cccnc1Cl)C(Cc1ccccc1)NS(=O)(=O)c1cccs1 (stereo not drawn) [Compound 46, [2-Phenyl-1-(thiophene-2-sulfonylamino)-ethyl]-phosphonic acid mono-(2-chloropyridin-3-yl) ester ammonium salt] | 188 | 1/1 | 1 | Synergy Class C E. Cl ([3]; inhibitor 1 μg/mL): 1/1; Synergy Class A St. A. [10]: 1
O=[N+]([O-])c1ccc(OP(=O)(O)CNS(=O)(=O)c2ccccc2Br)cc1 [compound 23] | 14 |  |  | 
CN(CP(=O)(O)Oc1ccc([N+](=O)[O-])cc1)S(=O)(=O)c1cc2ccccc2s1.N [Compound 142, [(2-Benzothiophenesulfonyl-N-methylamino)-methyl]-phosphonic acid mono-(4-nitrophenyl) ester ammonium salt] | 1300 | 2 |  | logP (physchem): -0.091
O=[N+]([O-])c1ccc(OP(=O)(O)CNS(=O)(=O)c2ccccn2)cc1 [compound 31] | 136 |  |  | 
CC(C)C(NS(=O)(=O)c1cccs1)P(=O)(O)Oc1ccc([N+](=O)[O-])cc1 (stereo not drawn) [Compound 52, [2-Methyl-1-thiophene-2-sulfonylamino)-propyl]-phosphonic acid mono-(4-nitrophenyl) ester ammonium salt] | 1400 | 4 | 1 | Synergy Class C E. Cl ([3]; inhibitor 1 μg/mL): 2; Synergy Class A St. A. [10]: 1
